From ChEMBL document CHEMBL5523691, “SAR study of N'-(Salicylidene)heteroarenecarbohydrazides as promising antifungal agents” (Bioorg Med Chem, 2024)
Converted amounts (≈) assume the structure as drawn. The source made the active and inactive calls. The calls are words filed in the database; no cut-off is given here.

How the values were obtained:
Cryptococcus neoformans [1] = assay: Antifungal activity against wild type Cryptococcus neoformans H99 assessed as inhibition of fungal growth incubated for 24 to 72 hrs by optical density based analysis; format: functional; details: time 24-72 hrs
Cryptococcus neoformans [2] = assay: Fungicidal activity against wild type Cryptococcus neoformans H99 assessed as minimum concentration required to kill fungus measured after 24 hrs by time-kill assay; format: functional
[3] = Cytotoxicity against human A549 cells assessed as cell killing measured after 24 to 48 hrs by MTT assay; format: toxicity, cell-based; details: time 24-48 hrs, read-out: LD50 (the source's name)
[4] = Selectivity index, ratio of LD50 for human A549 cells to MIC80 for Cryptococcus neoformans H99; format: toxicity; details: read-out: Selectivity Index
Candida albicans = assay: Antifungal activity against Candida albicans assessed as inhibition of fungal growth incubated for 24 to 72 hrs by optical density based analysis; format: functional; details: time 24-72 hrs
Aspergillus fumigatus = assay: Antifungal activity against Aspergillus fumigatus assessed as inhibition of fungal growth incubated for 24 to 72 hrs by optical density based analysis; format: functional; details: time 24-72 hrs
Cryptococcus neoformans [5] = assay: Antifungal activity against wild type Cryptococcus neoformans H99 assessed as inhibition of fungal growth in presence of fluconazole; format: functional
Cryptococcus neoformans [6] = assay: Antifungal activity against wild type Cryptococcus neoformans H99 assessed as inhibition of fungal growth in presence of caspofungin; format: functional
Cryptococcus neoformans [7] = assay: Antifungal activity against wild type Cryptococcus neoformans H99 assessed as inhibition of fungal growth in presence of amphotericin B; format: functional
Cryptococcus neoformans [8] = assay: Synergistic antifungal activity against wild type Cryptococcus neoformans H99 assessed as fractional inhibitory concentration index in presence of fluconazole; format: functional
Cryptococcus neoformans [9] = assay: Synergistic antifungal activity against wild type Cryptococcus neoformans H99 assessed as fractional inhibitory concentration index in presence of caspofungin; format: functional
Cryptococcus neoformans [10] = assay: Antifungal activity against wild type Cryptococcus neoformans H99 assessed as fractional inhibitory concentration index in presence of amphotericin B; format: functional
Cryptococcus neoformans [11] = assay: Antagonistic antifungal activity against wild type Cryptococcus neoformans H99 in presence of fluconazole; format: functional, organism-based
Cryptococcus neoformans [12] = assay: Antagonistic antifungal activity against wild type Cryptococcus neoformans H99 in presence of caspofungin; format: functional, organism-based
Cryptococcus neoformans [13] = assay: Antagonistic antifungal activity against wild type Cryptococcus neoformans H99 in presence of amphotericin B; format: functional, organism-based
Cryptococcus neoformans [14] = assay: Fungicidal activity against wild type Cryptococcus neoformans H99 assessed as minimum concentration required to kill fungus measured after 72 hrs by time-kill assay; format: functional
Cryptococcus neoformans [15] = assay: Fungicidal activity against wild type Cryptococcus neoformans H99 assessed as minimum concentration required to kill fungus measured after 48 hrs by time-kill assay; format: functional
Cryptococcus neoformans [16] = assay: Antifungal activity against wild type Cryptococcus neoformans H99 assessed as fractional inhibitory concentration index in presence of fluconazole; format: functional
Cryptococcus neoformans [17] = assay: Synergistic antifungal activity against wild type Cryptococcus neoformans H99 assessed as fractional inhibitory concentration index in presence of amphotericin B; format: functional
Cryptococcus neoformans [18] = assay: Fungicidal activity against wild type Cryptococcus neoformans H99 assessed as minimum concentration required to kill fungus measured after 96 hrs by time-kill assay; format: functional

SMILES | MIC80 (Cryptococcus neoformans [1]) [mg/L] | MFC100 (Cryptococcus neoformans [2]) [mg/L] | CC50 [3] [mg/L] | selectivity ratio [4] | MIC80 (Candida albicans) [mg/L] | MIC80 (Aspergillus fumigatus) [mg/L] | MIC80 (Cryptococcus neoformans [5]) [mg/L] | MIC80 (Cryptococcus neoformans [6]) [mg/L] | MIC80 (Cryptococcus neoformans [7]) [mg/L] | fractional inhibitory concentration index (FICI) (Cryptococcus neoformans [8]) | fractional inhibitory concentration index (FICI) (Cryptococcus neoformans [9]) | fractional inhibitory concentration index (FICI) (Cryptococcus neoformans [10]) | Activity (Cryptococcus neoformans [11]) | Activity (Cryptococcus neoformans [12]) | Activity (Cryptococcus neoformans [13]) | MFC100 (Cryptococcus neoformans [14]) [mg/L] | MFC100 (Cryptococcus neoformans [15]) [mg/L] | fractional inhibitory concentration index (FICI) (Cryptococcus neoformans [16]) | fractional inhibitory concentration index (FICI) (Cryptococcus neoformans [17]) | MFC100 (Cryptococcus neoformans [18]) [mg/L]
O=C(N/N=C/c1cc(Br)ccc1O)c1ccc(Br)o1 | 0.12 (≈ 0.309 µM) | 0.25 (≈ 0.644 µM) | > 32 | > 533 | 1 (≈ 2.58 µM) | 0.25 (≈ 0.644 µM) | 0.06 | 0.06 | 0.015 | 0.56 | 0.75 | 1.12 | inactive | inactive | inactive | – | – | – | – | –
O=C(N/N=C/c1ccc(Br)cc1O)c1ccc(C(F)(F)F)o1 | 1 (≈ 2.65 µM) | – | 4 (≈ 10.6 µM) | 4 | – | – | – | – | – | – | – | – | – | – | – | 4 (≈ 10.6 µM) | – | – | – | –
O=C(N/N=C/c1cc(Br)ccc1O)c1csc(Br)c1 | 0.014 (≈ 0.0346 µM) | – | > 32 | > 1070 | 0.125 (≈ 0.309 µM) | 1 (≈ 2.47 µM) | 0.002 | 0.015 | 0.001 | – | 0.14 | – | inactive | inactive | inactive | – | 0.06 (≈ 0.148 µM) | 1.1 | 0.53 | –
O=C(N/N=C/c1ccc(Br)cc1O)c1cc(Br)co1 | 0.5 (≈ 1.29 µM) | – | 16 (≈ 41.2 µM) | 32 | – | – | – | – | – | – | – | – | – | – | – | – | – | – | – | 2 (≈ 5.15 µM)
O=C(N/N=C/c1ccc(Br)cc1O)c1ccc(Br)o1 | 0.12 (≈ 0.309 µM) | 0.5 (≈ 1.29 µM) | > 32 | > 533 | 0.5 (≈ 1.29 µM) | 0.5 (≈ 1.29 µM) | 0.015 | 0.015 | 0.015 | 0.25 | 0.37 | – | inactive | inactive | inactive | – | – | – | 0.53 | –
